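Five concentrations, 48 hours, 96-well plates. TGI denotes the concentration required for complete inhibition of growth.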
Experiments:
Assay in all cases: DTP human tumour cell line panel, 48 h
UACC-257 melanoma = tested on: UACC-257 melanoma
SW-620 colon = tested on: SW-620 colon
KM12 colon = tested on: KM12 colon
OVCAR-5 ovarian = tested on: OVCAR-5 ovarian
A498 renal = tested on: A498 renal
HCT-116 colon = tested on: HCT-116 colon
SN12C renal = tested on: SN12C renal
MDA-N = tested on: MDA-N
MDA-MB-231 breast = tested on: MDA-MB-231 breast
NCI/ADR-RES ovarian = tested on: NCI/ADR-RES ovarian
PC-3 prostate = tested on: PC-3 prostate
DU-145 prostate = tested on: DU-145 prostate

Measured: TGI

CC(=O)n1cc(CC(C)O)c(=O)[nH]c1=O (configuration not stated)
31.2 µM: SN12C renal
> 100 µM: UACC-257 melanoma | SW-620 colon | KM12 colon | OVCAR-5 ovarian | A498 renal | HCT-116 colon

NC(=O)c1ccccc1NC(=O)C(=O)Nc1n[nH]c(N)n1
> 100 µM: UACC-257 melanoma | SW-620 colon | KM12 colon | OVCAR-5 ovarian | A498 renal | HCT-116 colon | SN12C renal

O=C1C=Cc2c1csc2Br
48.8 µM: SW-620 colon
not listed: A498 renal
> 100 µM: all other assays above

N#Cc1nc(-c2ccccc2O)oc1N
not listed: NCI/ADR-RES ovarian
> 100 µM: all other assays above

O=C(O)c1cccc(S(=O)(=O)NN2C(=O)CSC2c2ccccc2Cl)c1 (configuration not stated)
not listed: A498 renal | NCI/ADR-RES ovarian
> 100 µM: all other assays above

COc1ccc(C(=O)/C=C/c2ccc(OCC#N)cc2)cc1OC
23.4 µM: SW-620 colon
17.2 µM: HCT-116 colon
18.5 µM: KM12 colon
42.2 µM: MDA-MB-231 breast
23.8 µM: DU-145 prostate
50.2 µM: NCI/ADR-RES ovarian
32.3 µM: SN12C renal

NC(CCC(=O)NC(CSC(=O)N(O)c1ccc(Cl)cc1)C(=O)NCC(=O)O)C(=O)O (configuration not stated)
not listed: A498 renal
> 0.5 µM: all other assays above

c1csc(-c2ccc(-c3ccsc3)s2)c1
not listed: DU-145 prostate
> 100 µM: all other assays above

O=C(OCC(Cl)(Cl)Cl)N1CC[C@@H](C2CCCCC2)C1
31.8 µM: KM12 colon
50.6 µM: OVCAR-5 ovarian
32.9 µM: NCI/ADR-RES ovarian
80.7 µM: HCT-116 colon
46.3 µM: PC-3 prostate
not listed: SW-620 colon | A498 renal
> 100 µM: all other assays above

C[N+](C)(C)CC(=O)N/N=C/c1oc(-c2cccc([N+](=O)[O-])c2)c(-c2cccc([N+](=O)[O-])c2)c1[N+](=O)[O-]
> 100 µM: UACC-257 melanoma | SW-620 colon | OVCAR-5 ovarian | A498 renal | HCT-116 colon | SN12C renal

c1csc(-c2cscc2-c2cccs2)c1
8.22 µM: DU-145 prostate
39.9 µM: PC-3 prostate
not listed: MDA-N
> 100 µM: all other assays above

Source: PubChem BioAssay (NCI)
